Read-outs that look alike come from different tables or passages of the source.
Tests used:
[1] = rcm bond, 14-membered ring, 1,2-dichloroethane
HCV NS3/4A protease = HCV NS3/4A protease (Hepatitis C virus genotype 1a (isolate H77) (HCV), UniProt P27958); test: Inhibition assay (enzymatic assay) of full-length NS3 protease with NS4A cofactor; type: biochemical; details: full-length NS3 protease 1 nM, 25 μM NS4A cofactor, depsipeptide substrate, competitive inhibition model; read-out: Ki (μM) Enzymatic assay
Description: [Landro, 1997 #Biochem 36 9340-9348]. […] The solutions were stored at −20° C. between measurements.
[Liu, 1999 Analytical Biochemistry 267 331-335].

[2] = tested on: HCV type 1b replicon in Huh-7 luc/neo (Huh-Luc) cells; test: Replicon assay: inhibition of HCV RNA replication in Huh-Luc cells (luciferase); type: cell-based; details: luciferase activity, incubation of three days
Description: The in vitro antiviral activity against HCV of the compounds of formula (I) was tested in a cellular HCV replicon system based on Lohmann et al. (1999) Science 285:110-113, with the further modifications described by Krieger et al. (2001) Journal of Virology 75: 4614-4624, which is further exemplified in the examples section. This model, while not a complete infection model for HCV, is widely accepted as the most robust and efficient model of autonomous HCV RNA replication currently available. […] It will be appreciated that it is important to distinguish between compounds that specifically interfere with HCV functions from those that exert cytotoxic or cytostatic effects in the HCV replicon model, and as a consequence cause a decrease in HCV RNA or linked reporter enzyme concentration. Assays are known in the field for the evaluation of cellular cytotoxicity based for example on the activity of mitochondrial enzymes using fluorogenic redox dyes such as resazurin. Furthermore, cellular counter screens exist for the evaluation of non-selective inhibition of linked reporter gene activity, such as firefly luciferase. Appropriate cell types can be equipped by stable transfection with a luciferase reporter gene whose expression is dependent on a constitutively active gene promoter, and such cells can be used as a counter-screen to eliminate non-selective inhibitors.
The compounds of formula (I) were examined for activity in the inhibition of HCV RNA replication in a cellular assay. […] The cellular assay was based on a bicistronic expression construct, as described by Lohmann et al. (1999) Science vol. 285 pp. 110-113 with modifications described by Krieger et al. (2001) Journal of Virology 75: 4614-4624, in a multi-target screening strategy. In essence, the method was as follows.
The assay utilized the stably transfected cell line Huh-7 luc/neo (hereafter referred to as Huh-Luc). This cell line harbors an RNA encoding a bicistronic expression construct comprising the wild type NS3-NS5B regions of HCV type 1b translated from an Internal Ribosome Entry Site (IRES) from encephalomyocarditis virus (EMCV), preceded by a reporter portion (FfL-luciferase), and a selectable marker portion (neo^R, neomycine phosphotransferase). The construct is bordered by 5′ and 3′ NTRs (non-translated regions) from HCV type 1b. Continued culture of the replicon cells in the presence of G418 (neo^R) is dependent on the replication of the HCV RNA. The stably transfected replicon cells that express HCV RNA, which replicates autonomously and to high levels, encoding inter alia luciferase, are used for screening the antiviral compounds.
The replicon cells were plated in 384 well plates in the presence of the test and control compounds which were added in various concentrations. Following an incubation of three days, HCV replication was measured by assaying luciferase activity (using standard luciferase assay substrates and reagents and a Perkin Elmer ViewLux™ ultraHTS microplate imager). Replicon cells in the control cultures have high luciferase expression in the absence of any inhibitor. The inhibitory activity of the compound on luciferase activity was monitored on the Huh-Luc cells, enabling a dose-response curve for each test compound.

Sequence of HCV NS3/4A protease (P27958 1027-1657): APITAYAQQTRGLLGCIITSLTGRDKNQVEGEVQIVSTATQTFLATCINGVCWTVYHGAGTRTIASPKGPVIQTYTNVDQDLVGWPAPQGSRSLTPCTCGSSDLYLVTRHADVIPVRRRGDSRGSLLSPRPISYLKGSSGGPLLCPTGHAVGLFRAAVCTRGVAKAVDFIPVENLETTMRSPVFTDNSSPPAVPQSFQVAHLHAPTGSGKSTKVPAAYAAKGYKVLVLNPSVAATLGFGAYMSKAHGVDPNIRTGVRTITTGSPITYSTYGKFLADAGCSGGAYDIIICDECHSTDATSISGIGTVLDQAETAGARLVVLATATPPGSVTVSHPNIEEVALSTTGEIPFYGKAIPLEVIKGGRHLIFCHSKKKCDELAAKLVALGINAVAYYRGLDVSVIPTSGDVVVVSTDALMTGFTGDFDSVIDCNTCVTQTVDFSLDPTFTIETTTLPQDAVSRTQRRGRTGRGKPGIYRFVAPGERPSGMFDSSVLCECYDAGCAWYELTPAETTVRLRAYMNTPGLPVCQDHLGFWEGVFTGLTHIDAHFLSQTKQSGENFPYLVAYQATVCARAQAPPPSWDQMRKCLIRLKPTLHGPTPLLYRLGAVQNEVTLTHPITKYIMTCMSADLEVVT

Work on `CCOC(=O)C12CC1C=CCCCCN(C)C(=O)C1CC(Oc3cc(-c4cccc(C(C)C)n4)nc4c(C)c(OC)ccc34)CC1C(=O)N2` (centres unmarked) yielded a ring closure, isolated yield ([1]; from C=CCCCCN(C)C(=O)C1CC(Oc2cc(-c3cccc(C(C)C)n3)nc3c(C)c(OC)ccc23)CC1C(=O)NC1(C(=O)OCC)CC1C=C, Hoveyda-Grubbs I (3 portions), 17.0 h) of 66%.
Compound `CCOC(=O)C12CC1C=CCCCCN(C)C(=O)C1CC(Oc3cc(-c4cccc(C)n4)nc4c(C)c(OC)ccc34)CC1C(=O)N2` (centres unmarked) has a ring closure, isolated yield ([1]; from C=CCCCCN(C)C(=O)C1CC(Oc2cc(-c3cccc(C)n3)nc3c(C)c(OC)ccc23)CC1C(=O)NC1(C(=O)OCC)CC1C=C, Hoveyda-Grubbs II, 1.48 mM, 16.0 h) of 58%.
With `COc1ccc2c(O[C@@H]3C[C@H]4C(=O)N[C@]5(C(=O)NS(=O)(=O)C6CC6)C[C@H]5/C=C\CCCCCNC(=O)N4C3)cc(-c3nc(C(C)C)cs3)nc2c1C` (stereo in doubt) [Compound 91, N-[[18-[2-[4-(isopropyl)thiazol-2-yl]-7-methoxy-8-methylquinolin-4-yloxy]-2,15-dioxo-3,14,16-triazatricyclo[14.3.0.0^4,6]nonadec-7-en-4-yl]carbonyl]-(cyclopropyl)sulfonamide] the Ki (HCV NS3/4A protease) was 0.05 nM and the EC50 ([2]; Hepatitis C virus, Huh-7, 72 h) was 0.00854 µM.
In the case of `COc1ccc2c(O[C@@H]3C[C@H]4C(=O)N[C@]5(C(=O)NS(=O)(=O)C6CC6)C[C@H]5/C=C\CCCCCNC(=O)N4C3)cc(-c3nc(C(C)C)cs3)nc2c1Cl` (stereo in doubt) [Compound 94, N-[[18-[8-chloro-2-[4-(isopropyl)thiazol-2-yl]-7-methoxyquinolin-4-yloxy]-2,15-dioxo-3,14,16-triazatricyclo[14.3.0.0^4,6]nonadec-7-en-4-yl]carbonyl]-(cyclopropyl)sulfonamide], the Ki (HCV NS3/4A protease) is reported as 0.1 nM and the EC50 ([2]; Hepatitis C virus, Huh-7, 72 h) is reported as 0.00326 µM.
With `COc1ccc2c(O[C@@H]3C[C@H]4C(=O)N[C@]5(C(=O)NS(=O)(=O)C6(C)CC6)C[C@H]5/C=C\CCCCCNC(=O)N4C3)cc(-c3nc(C(C)C)cs3)nc2c1Cl` (stereo in doubt) [Compound 95, N-[[18-[8-chloro-2-[4-(isopropyl)thiazol-2-yl]-7-methoxyquinolin-4-yloxy]-2,15-dioxo-3,14,16-triazatricyclo[14.3.0.0^4,6]nonadec-7-en-4-yl]carbonyl](1-methylcyclopropyl)sulfonamide] the Ki (HCV NS3/4A protease) was 0.1 nM and the EC50 ([2]; Hepatitis C virus, Huh-7, 72 h) was 0.00404 µM.
With `COc1ccc2c(O[C@@H]3C[C@H]4C(=O)N[C@]5(C(=O)O)C[C@H]5/C=C\CCCCN(C)C(=O)[C@@H]4C3)cc(-c3nccs3)nc2c1C` [Compound 29, 17-[7-methoxy-8-methyl-2-(thiazol-2-yl)quinolin-4-yloxy]-13-methyl-2,14-dioxo-3,13-diazatricyclo[13.3.0.0^4,6]octadec-7-ene-4-carboxylic acid] the EC50 ([2]; Hepatitis C virus, Huh-7, 72 h) was 10 µM.
In the case of `COc1ccc2c(O[C@@H]3C[C@H]4C(=O)N[C@]5(C(=O)O)C[C@H]5/C=C\CCCCN(C)C(=O)[C@@H]4C3)cc(-c3nc(C(C)C)cs3)nc2c1C` [Compound 46, 17-[2-(4-isopropylthiazole-2-yl)-7-methoxy-8-methyl-quinolin-4-yloxy]-13-methyl-2,14-dioxo-3,13-diazatricyclo[13.3.0.0^4,6]octadec-7-ene-4-carboxylic acid], the EC50 ([2]; Hepatitis C virus, Huh-7, 72 h) is reported as 0.91 µM.
In the case of `COc1ccc2c(O[C@@H]3C[C@H]4C(=O)N[C@]5(C(=O)NS(=O)(=O)C6(C)CC6)C[C@H]5/C=C\CCCCN(C)C(=O)[C@@H]4C3)cc(-c3nc(C(C)C)cs3)nc2c1C` [Compound 48, N-[17-[2-(4-isopropylthiazole-2-yl)-7-methoxy-8-methylquinolin-4-yloxy]-13-methyl-2,14-dioxo-3,13-diazatricyclo[13.3.0.0^4,6]octadec-7-ene-4-carbonyl](1-methylcyclopropyl)sulfonamide], the Ki (HCV NS3/4A protease) is reported as 0.25 nM and the EC50 ([2]; Hepatitis C virus, Huh-7, 72 h) is reported as 0.00233 µM.
`COc1ccc2c(O[C@@H]3C[C@H]4C(=O)N[C@]5(C(=O)O)C[C@H]5/C=C\CCCCN(C)C(=O)[C@@H]4C3)cc(-c3nc(C(C)C)cs3)nc2c1Cl` [Compound 55, 17-[8-chloro-2-(4-isopropylthiazole-2-yl)-7-methoxyquinolin-4-yloxy]-13-methyl-2,14-dioxo-3,13-diazatricyclo[13.3.0.0^4,6]octadec-7-ene-4-carboxylic acid] gave a Ki (HCV NS3/4A protease) of 5 nM and an EC50 ([2]; Hepatitis C virus, Huh-7, 72 h) of 0.367 µM.
Compound `COc1ccc2c(O[C@@H]3C[C@H]4C(=O)N[C@]5(C(=O)NS(=O)(=O)C6CC6)C[C@H]5/C=C\CCCCN(C)C(=O)[C@@H]4C3)cc(-c3nc(C(C)C)cs3)nc2c1Cl` [Compound 56, N-[17-[8-chloro-2-(4-isopropylthiazole-2-yl)-7-methoxyquinolin-4-yloxy]-13-methyl-2,14-dioxo-3,13-diazatricyclo[13.3.0.0^4,6]-octadec-7-ene-4-carbonyl](cyclopropyl)sulfonamide] has an EC50 ([2]; Hepatitis C virus, Huh-7, 72 h) of 0.00293 µM.
Work on `COc1ccc2c(O[C@@H]3C[C@H]4C(=O)N[C@]5(C(=O)NS(=O)(=O)C6(C)CC6)C[C@H]5/C=C\CCCCN(C)C(=O)[C@@H]4C3)cc(-c3nc(C(C)C)cs3)nc2c1Cl` [Compound 57, N-[17-[8-chloro-2-(4-isopropylthiazole-2-yl)-7-methoxy-quinolin-4-yloxy]-13-methyl-2,14-dioxo-3,13-diazatricyclo[13.3.0.0^4,6]octadec-7-ene-4-carbonyl] (1-methylcyclopropyl)sulfonamide] yielded a Ki (HCV NS3/4A protease) of 0.3 nM and an EC50 ([2]; Hepatitis C virus, Huh-7, 72 h) of 0.00187 µM.
Compound `COc1ccc2c(O[C@@H]3C[C@H]4C(=O)N[C@]5(C(=O)NS(=O)(=O)C6CC6)C[C@H]5/C=C\CCCCN(C)C(=O)[C@@H]4C3)cc(-n3ccc(C(C)C)n3)nc2c1C` [Compound 66, N-[17-[2-(3-isopropylpyrazol-1-yl)-7-methoxy-8-methyl-quinolin-4-yloxy]-13-methyl-2,14-dioxo-3,13-diazatricyclo[13.3.0.0^4,6]octadec-7-ene-4-carbonyl](cyclopropyl)sulfonamide] has an EC50 ([2]; Hepatitis C virus, Huh-7, 72 h) of 0.0036 µM.
In the case of `CCc1c(OC)ccc2c(O[C@@H]3C[C@H]4C(=O)N[C@]5(C(=O)NS(=O)(=O)C6CC6)C[C@H]5/C=C\CCCCN(C)C(=O)[C@@H]4C3)cc(-c3nc(C(C)C)cs3)nc12` [Compound 72], the EC50 ([2]; Hepatitis C virus, Huh-7, 72 h) is reported as 0.066 µM.
With `COc1ccc2c(O[C@@H]3C[C@H]4C(=O)N[C@]5(C(=O)NS(=O)(=O)C6CC6)C[C@H]5/C=C\CCCCN(C)C(=O)[C@@H]4C3)cc(-c3nc(C(C)C)cs3)nc2c1F` [Compound 75] the EC50 ([2]; Hepatitis C virus, Huh-7, 72 h) was 0.0575 µM.
For `COc1ccc2c(O[C@H]3C[C@H]4C(=O)NCCCCC/C=C\[C@@H]5C[C@@]5(C(=O)NS(=O)(=O)C5CC5)NC(=O)[C@@H]4C3)cc(-c3nc(C(C)C)cs3)nc2c1C` [Compound 82], the Ki (HCV NS3/4A protease) was 9.4 nM and the EC50 ([2]; Hepatitis C virus, Huh-7, 72 h) was 8.32 µM.
`COc1ccc2c(O[C@@H]3C[C@H]4C(=O)N[C@]5(C(=O)NS(=O)(=O)C6CC6)C[C@H]5/C=C\CCCCN(C)C(=O)[C@@H]4C3)cc(-c3cccc(C)n3)nc2c1C` [Compound 103, Cyclopropanesulfonic acid {17-[2-(6-methyl-2-pyridyl)-7-methoxy-8-methyl-quinolin-4-yloxy]-13-methyl-2,14-dioxo-3,13-diaza-tricyclo[13.3.0.0^4,6]octadec-7-ene-4-carbonyl}-amide] showed an EC50 ([2]; Hepatitis C virus, Huh-7, 72 h) of 0.0063 µM.
With “N-[17-[8-ethyl-2-(4-isopropylthiazole-2-yl)-7-methoxyquinolin-4-yloxy]-13-methyl-2,14-dioxo-3,13-diazatricyclo[13.3.0.0^4,6]octadec-7-ene-4-carbonyl](cyclo-propyl)sulfonamide [Compound 71]” the EC50 [2] was 10 µM.
With “N-[18-[2-(4-isopropylthiazole-2-yl)-7-methoxy-8-methylquinolin-4-yl-oxy]-2,15-dioxo-3,14-diazatricyclo[14.3.0.0^4,6]nonadec-7-ene-4-carbonyl](cyclo-propyl)sulfonamide [Compound 81]” the Ki (HCV NS3/4A protease) was 1000 nM and the EC50 [2] was 10 µM.

From patent publication US8741926B2, “Macrocyclic inhibitors of hepatitis C virus” (Tibotec Pharmaceuticals Ltd., priority 2005, dated 2014)
